Test results: patent US20160175293A1, “PIM KINASE INHIBITOR COMBINATIONS” (priority 2013, published 2016)

Tests used:
MOLM-13 = experiment: Cell Titer Glo viability, dose matrix, Chalice analysis; type: cell-based
Procedure: (§1) Compound stock was freshly prepared in the appropriate culture medium and manually added to the plates by electronic multichannel pipette in three replicates. […] The viability of cells was assessed after 72 hours of treatment by quantification of cellular ATP levels via Cell Titer Glo (Promega #G7571) according to the manufacturer's protocol. Plates were read on a luminescence plate reader (Victor X4, Perkin Elmer).
(§2) Each compound is diluted threefold times and the dashes below represent the threefold dilution between each number.

MV-4-11 = experiment: as above; type: cell-based
Procedure: as §1, §2

KMS-12-BM = experiment: mouse xenograft model KMS-12-BM; type: in vivo; settings: single agent Compound B

CO[C@@H]1[C@H](N(C)C(=O)c2ccccc2)C[C@H]2O[C@]1(C)n1c3ccccc3c3c4c(c5c6ccccc6n2c5c31)C(=O)NC4 [PKC412, midostaurin]
single agent activity (MOLM-13): active
single agent activity (MV-4-11): active

Cc1nc(NC(=O)N2CCC[C@H]2C(N)=O)sc1-c1ccnc(C(C)(C)C(F)(F)F)c1 [Compound B, (S)-pyrrolidine-1,2-dicarboxylic acid 2-amide 1-({4-methyl-5-[2-(2,2,2-trifluoro-1,1-dimethyl-ethyl)-pyridin-4-yl]-thiazol-2-yl}-amide)]
anti-tumor activity (KMS-12-BM): did not demonstrate in anti-tumor activity

C[C@@H]1C[C@H](N)C[C@H](c2ccncc2NC(=O)c2ccc(F)c(-c3c(F)cccc3F)n2)C1 [Compound A, N-(4-((1R,3S,5S)-3-amino-5-methylcyclohexyl)pyridin-3-yl)-6-(2,6-difluorophenyl)-5-fluoropicolinamide]
PK exposure at steady state (Day 14 (steady state), 200 mg to 350 mg dose): plateau
PK exposure (Cmax AUC) dose proportionality (dose range of 70 mg-250 mg, Day 1): over proportional
increase of exposure at 500 mg compared to 200 mg to 350 mg dose (steady state): about 2 fold
